Results taken from patent US8129371B2, “Thienopyrimidine and pyrazolopyrimidine compounds and their use as mTOR kinase and PI3 kinase inhibitors” (Wyeth LLC, priority 2007, dated 2012).
pIC50: −log10 of the molar value.

Key:
PI3K [1] = target: T1, PI3K (Homo sapiens, UniProt P48736); test: Fluorescence polarization assay for PI3K; format: biochemical; conditions: PI3 Kinase γ; read-out: PI3 Kinase γ IC50
T1 construct: PI3 Kinase γ IC50; other: PI3 Kinase γ; other: PI3 Kinase γ isoform, fluorescence polarization
Summary of the method: (§1)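 Fluorescence-polarization competition readout: after 30–60 min of PIP2/ATP turnover in 1% DMSO, a stop mix with GST-GRP (70 nM) and red probe (10 nM) was added.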

PI3K [2] = target: T2, PI3K (Homo sapiens, UniProt P42336); test: Fluorescence polarization assay for PI3K; format: biochemical; conditions: PI3 Kinase α; read-out: PI3 Kinase α IC50
T2 construct: PI3 Kinase α IC50; other: PI3 Kinase α; other: PI3 Kinase α isoform, fluorescence polarization
Summary of the method: as §1

prostate line LNCap = test: In vitro cell culture growth assay (MTS), LNCap; format: cell-based; conditions: Homo sapiens, LNCaP, 72 h, LNCap cells, three days after drug treatment
Summary of the method: (§2)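 Cells were plated and, one day later, treated with inhibitors. Three days after treatment, viable cell density was measured by MTS dye conversion, read as absorbance at 490 nm. Effects are expressed as percent of control growth versus vehicle-treated cells on the same plate.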

Human mTOR (FLAG-TOR) = target: T3, Human mTOR (FLAG-TOR) (Homo sapiens, UniProt P42345); test: Human mTOR kinase assay with purified enzyme, DELFIA format; format: biochemical
T3 construct: FLAG
Summary of the method: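 DELFIA readout: Eu-anti-P(T389)-S6K antibody (40 ng/mL, 1 h) on captured His6-S6K from the stopped reaction. Kinase step used purified FLAG-tagged human mTOR with test compound in HEPES (pH 7.4)/MnCl2/DTT buffer, 2 h at room temperature (linear 1–6 h), terminated by EDTA/EGTA.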

breast line MDA468 = test: In vitro cell culture growth assay (MTS), MDA468; format: cell-based; conditions: Homo sapiens, 72 h, MDA468 cells, three days after drug treatment
Summary of the method: as §2

T1 sequence (P48736 whole entry, canonical isoform): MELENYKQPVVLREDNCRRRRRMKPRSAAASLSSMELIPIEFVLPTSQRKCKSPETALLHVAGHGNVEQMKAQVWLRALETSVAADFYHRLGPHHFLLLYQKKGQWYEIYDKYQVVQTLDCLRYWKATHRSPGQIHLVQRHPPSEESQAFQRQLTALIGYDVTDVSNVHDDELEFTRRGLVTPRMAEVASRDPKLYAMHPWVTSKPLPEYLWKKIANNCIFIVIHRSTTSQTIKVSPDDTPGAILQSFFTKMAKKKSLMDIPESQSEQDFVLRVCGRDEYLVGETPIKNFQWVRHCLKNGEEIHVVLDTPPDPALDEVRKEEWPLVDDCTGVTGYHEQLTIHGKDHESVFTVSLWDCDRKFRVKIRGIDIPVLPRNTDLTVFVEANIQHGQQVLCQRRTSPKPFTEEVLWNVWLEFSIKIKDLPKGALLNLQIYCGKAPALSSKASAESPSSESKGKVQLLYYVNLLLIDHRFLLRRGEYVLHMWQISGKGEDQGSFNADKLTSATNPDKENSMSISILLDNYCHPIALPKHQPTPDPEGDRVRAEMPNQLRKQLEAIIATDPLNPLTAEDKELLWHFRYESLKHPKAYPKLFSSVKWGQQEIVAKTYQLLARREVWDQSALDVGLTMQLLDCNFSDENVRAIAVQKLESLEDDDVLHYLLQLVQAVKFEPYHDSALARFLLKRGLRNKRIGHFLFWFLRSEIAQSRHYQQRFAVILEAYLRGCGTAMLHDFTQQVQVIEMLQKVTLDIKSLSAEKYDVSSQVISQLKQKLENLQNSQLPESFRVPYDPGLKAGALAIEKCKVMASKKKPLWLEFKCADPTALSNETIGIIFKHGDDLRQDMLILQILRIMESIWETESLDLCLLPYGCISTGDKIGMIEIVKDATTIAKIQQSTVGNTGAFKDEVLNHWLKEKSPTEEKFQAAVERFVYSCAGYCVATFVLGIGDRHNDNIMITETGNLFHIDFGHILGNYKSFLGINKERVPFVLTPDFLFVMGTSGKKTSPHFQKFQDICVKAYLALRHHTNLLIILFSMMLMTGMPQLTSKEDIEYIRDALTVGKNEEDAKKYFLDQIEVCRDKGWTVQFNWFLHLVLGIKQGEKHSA
T2 sequence (P42336 whole entry, canonical isoform): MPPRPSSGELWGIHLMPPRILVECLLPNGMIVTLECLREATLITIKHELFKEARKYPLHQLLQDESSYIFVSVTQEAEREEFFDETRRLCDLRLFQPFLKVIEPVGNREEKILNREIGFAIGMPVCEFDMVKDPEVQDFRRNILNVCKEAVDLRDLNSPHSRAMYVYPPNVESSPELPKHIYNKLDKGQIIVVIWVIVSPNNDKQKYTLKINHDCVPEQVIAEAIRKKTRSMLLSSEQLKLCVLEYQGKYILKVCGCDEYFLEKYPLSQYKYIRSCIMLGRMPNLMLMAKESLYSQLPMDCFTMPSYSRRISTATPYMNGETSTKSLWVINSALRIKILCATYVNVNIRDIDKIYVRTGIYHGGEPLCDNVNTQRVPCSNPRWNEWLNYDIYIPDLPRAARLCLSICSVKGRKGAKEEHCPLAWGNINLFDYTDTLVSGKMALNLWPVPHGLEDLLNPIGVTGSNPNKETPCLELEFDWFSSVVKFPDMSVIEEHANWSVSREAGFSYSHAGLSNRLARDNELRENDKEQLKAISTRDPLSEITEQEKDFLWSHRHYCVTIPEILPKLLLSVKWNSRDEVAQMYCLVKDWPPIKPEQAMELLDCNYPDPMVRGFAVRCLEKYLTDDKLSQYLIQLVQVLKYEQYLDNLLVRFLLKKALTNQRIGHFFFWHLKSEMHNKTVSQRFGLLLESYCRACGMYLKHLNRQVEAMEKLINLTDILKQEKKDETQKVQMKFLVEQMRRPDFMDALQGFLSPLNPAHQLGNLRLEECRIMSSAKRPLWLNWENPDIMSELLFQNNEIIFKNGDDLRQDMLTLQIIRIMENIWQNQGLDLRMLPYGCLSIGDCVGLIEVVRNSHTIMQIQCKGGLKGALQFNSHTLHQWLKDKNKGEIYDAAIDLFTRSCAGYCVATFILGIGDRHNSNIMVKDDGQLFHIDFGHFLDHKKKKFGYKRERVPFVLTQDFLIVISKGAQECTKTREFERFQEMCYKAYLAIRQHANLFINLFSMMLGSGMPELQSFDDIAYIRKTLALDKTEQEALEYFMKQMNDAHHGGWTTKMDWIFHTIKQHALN

pIC50 (PI3K [1])	pIC50 (PI3K [2])	pIC50 (prostate line LNCap)	pIC50 (Human mTOR (FLAG-TOR))	SMILES	pIC50 (breast line MDA468)
< 5.00	< 5.00	6.72	8.40	O=C(Nc1ccc(-c2nc(N3CC4CCC(C3)O4)c3cnn(C4CCC5(CC4)OCCO5)c3n2)cc1)OCCCO [Example 122, 3-hydroxypropyl {4-[1-(1,4-dioxaspiro[4.5]dec-8-yl)-4-(8-oxa-3-azabicyclo[3.2.1]oct-3-yl)-1H-pyrazolo[3,4-d]pyrimidin-6-yl]phenyl}carbamate]	5.74
< 5.00	5.34	9.00	9.59	CCNC(=O)Nc1ccc(-c2nc(N3CC4CCC(C3)O4)c3cnn(C4CCC5(CC4)OCCO5)c3n2)cc1 [Example 123, 1-{4-[1-(1,4-dioxaspiro[4.5]dec-8-yl)-4-(8-oxa-3-azabicyclo[3.2.1]oct-3-yl)-1H-pyrazolo[3,4-d]pyrimidin-6-yl]phenyl}-3-ethylurea]	8.05
< 5.00	5.29	9.00	9.65	O=C(NCCF)Nc1ccc(-c2nc(N3CC4CCC(C3)O4)c3cnn(C4CCC5(CC4)OCCO5)c3n2)cc1 [Example 124, 1-{4-[1-(1,4-dioxaspiro[4.5]dec-8-yl)-4-(8-oxa-3-azabicyclo[3.2.1]oct-3-yl)-1H-pyrazolo[3,4-d]pyrimidin-6-yl]phenyl}-3-(2-fluoroethyl)urea]	7.70
< 5.00	5.87	8.10	9.63	O=C(NCCO)Nc1ccc(-c2nc(N3CC4CCC(C3)O4)c3cnn(C4CCC5(CC4)OCCO5)c3n2)cc1 [Example 125, 1-{4-[1-(1,4-dioxaspiro[4.5]dec-8-yl)-4-(8-oxa-3-azabicyclo[3.2.1]oct-3-yl)-1H-pyrazolo[3,4-d]pyrimidin-6-yl]phenyl}-3-(2-hydroxyethyl)urea]	7.40
< 5.00	4.92	8.70	9.66	O=C(Nc1ccc(-c2nc(N3CC4CCC(C3)O4)c3cnn(C4CCC5(CC4)OCCO5)c3n2)cc1)NC1CC1 [Example 126, 1-cyclopropyl-3-{4-[1-(1,4-dioxaspiro[4.5]dec-8-yl)-4-(8-oxa-3-azabicyclo[3.2.1]oct-3-yl)-1H-pyrazolo[3,4-d]pyrimidin-6-yl]phenyl}urea]	7.24
< 5.00	6.45	8.40	9.81	O=C(Nc1ccccc1)Nc1ccc(-c2nc(N3CC4CCC(C3)O4)c3cnn(C4CCC5(CC4)OCCO5)c3n2)cc1 [Example 127, 1-{4-[1-(1,4-dioxaspiro[4.5]dec-8-yl)-4-(8-oxa-3-azabicyclo[3.2.1]oct-3-yl)-1H-pyrazolo[3,4-d]pyrimidin-6-yl]phenyl}-3-phenylurea]	7.74
5.71	6.66	> 9.00	9.90	O=C(Nc1ccncc1)Nc1ccc(-c2nc(N3CC4CCC(C3)O4)c3cnn(C4CCC5(CC4)OCCO5)c3n2)cc1 [Example 128, 1-{4-[1-(1,4-dioxaspiro[4.5]dec-8-yl)-4-(8-oxa-3-azabicyclo[3.2.1]oct-3-yl)-1H-pyrazolo[3,4-d]pyrimidin-6-yl]phenyl}-3-pyridin-4-ylurea]	9.00
< 5.00	< 5.00	6.10	7.98	O=C(Nc1ccc(-c2nc(N3CC4CCC(C3)O4)c3cnn(C4CCC5(CC4)OCCO5)c3n2)cc1)OCC(F)(F)F [Example 129, 2,2,2-trifluoroethyl {4-[1-(1,4-dioxaspiro[4.5]dec-8-yl)-4-(8-oxa-3-azabicyclo[3.2.1]oct-3-yl)-1H-pyrazolo[3,4-d]pyrimidin-6-yl]phenyl}carbamate]	5.31
< 5.00	< 5.00	7.35	8.82	O=C(Nc1ccc(-c2nc(N3CC4CCC(C3)O4)c3cnn(C4CCC5(CC4)OCCO5)c3n2)cc1)OCCF [Example 130, 2-fluoroethyl {4-[1-(1,4-dioxaspiro[4.5]dec-8-yl)-4-(8-oxa-3-azabicyclo[3.2.1]oct-3-yl)-1H-pyrazolo[3,4-d]pyrimidin-6-yl]phenyl}carbamate]	6.10
< 5.00	< 5.00	< 4.22	6.20	O=C1OCCN1c1ccc(-c2nc(N3CC4CCC(C3)O4)c3cnn(C4CCC5(CC4)OCCO5)c3n2)cc1 [Example 131, 3-{4-[1-(1,4-dioxaspiro[4.5]dec-8-yl)-4-(8-oxa-3-azabicyclo[3.2.1]oct-3-yl)-1H-pyrazolo[3,4-d]pyrimidin-6-yl]phenyl}-1,3-oxazolidin-2-one]	< 4.22
< 5.00	< 5.00	6.24	7.81	OCCNc1ccc(-c2nc(N3CC4CCC(C3)O4)c3cnn(C4CCC5(CC4)OCCO5)c3n2)cc1 [Example 132, 2-({4-[1-(1,4-dioxaspiro[4.5]dec-8-yl)-4-(8-oxa-3-azabicyclo[3.2.1]oct-3-yl)-1H-pyrazolo[3,4-d]pyrimidin-6-yl]phenyl}amino)ethanol]	5.30
5.12	6.04	7.05	7.73	CN(C)CCNC(=O)Nc1ccc(-c2nc(N3CC4CCC(C3)O4)c3cnn(C4CCC5(CC4)OCCO5)c3n2)cc1 [Example 133, 1-[2-(dimethylamino)ethyl]-3-{4-[1-(1,4-dioxaspiro[4.5]dec-8-yl)-4-(8-oxa-3-azabicyclo[3.2.1]oct-3-yl)-1H-pyrazolo[3,4-d]pyrimidin-6-yl]phenyl}urea]	6.15
< 5.00	5.61	6.41	7.76	CN1CCN(CCNC(=O)Nc2ccc(-c3nc(N4CC5CCC(C4)O5)c4cnn(C5CCC6(CC5)OCCO6)c4n3)cc2)CC1 [Example 134, 1-{4-[1-(1,4-dioxaspiro[4.5]dec-8-yl)-4-(8-oxa-3-azabicyclo[3.2.1]oct-3-yl)-1H-pyrazolo[3,4-d]pyrimidin-6-yl]phenyl}-3-[2-(4-methylpiperazin-1-yl)ethyl]urea]	5.40
5.77	6.84	9.00	9.57	CN1CCN(c2ccc(NC(=O)Nc3ccc(-c4nc(N5CC6CCC(C5)O6)c5cnn(C6CCC7(CC6)OCCO7)c5n4)cc3)cc2)CC1 [Example 135, 1-{4-[1-(1,4-dioxaspiro[4.5]dec-8-yl)-4-(8-oxa-3-azabicyclo[3.2.1]oct-3-yl)-1H-pyrazolo[3,4-d]pyrimidin-6-yl]phenyl}-3-[4-(4-methylpiperazin-1-yl)phenyl]urea]	9.00
< 5.00	5.41	7.40	8.20	COC(=O)Nc1ccc(-c2nc(N3CC4CCC(C3)O4)c3cnn(C4CCC(=O)CC4)c3n2)cc1 [Example 136, methyl {4-[4-(8-oxa-3-azabicyclo[3.2.1]oct-3-yl)-1-(4-oxocyclohexyl)-1H-pyrazolo[3,4-d]pyrimidin-6-yl]phenyl}carbamate]	5.96
< 5.00	5.18	6.70	8.43	COC(=O)Nc1ccc(-c2nc(N3CC4CCC(C3)O4)c3cnn(C4CCC(O)CC4)c3n2)cc1 (stereo not shown) [Example 137, methyl {4-[1-(4-hydroxycyclohexyl)-4-(8-oxa-3-azabicyclo[3.2.1]oct-3-yl)-1H-pyrazolo[3,4-d]pyrimidin-6-yl]phenyl}carbamate]	5.77
5.42	5.98	7.10	8.89	COC(=O)Nc1ccc(-c2nc(N3CC4CCC(C3)O4)c3cnn(C(C)C)c3n2)cc1 [Example 138, methyl {4-[1-isopropyl-4-(8-oxa-3-azabicyclo[3.2.1]oct-3-yl)-1H-pyrazolo[3,4-d]pyrimidin-6-yl]phenyl}carbamate]	6.29
5.21	6.63	8.30	9.94	CNC(=O)Nc1ccc(-c2nc(N3CC4CCC(C3)O4)c3cnn(C(C)C)c3n2)cc1 [Example 139, 1-{4-[1-isopropyl-4-(8-oxa-3-azabicyclo[3.2.1]oct-3-yl)-1H-pyrazolo[3,4-d]pyrimidin-6-yl]phenyl}-3-methylurea]	7.30
5.23	6.13	9.00	9.85	CCNC(=O)Nc1ccc(-c2nc(N3CC4CCC(C3)O4)c3cnn(C(C)C)c3n2)cc1 [Example 140, 1-ethyl-3-{4-[1-isopropyl-4-(8-oxa-3-azabicyclo[3.2.1]oct-3-yl)-1H-pyrazolo[3,4-d]pyrimidin-6-yl]phenyl}urea]	7.49
5.20	6.19	9.00	9.81	CC(C)n1ncc2c(N3CC4CCC(C3)O4)nc(-c3ccc(NC(=O)NCCF)cc3)nc21 [Example 141, 1-(2-fluoroethyl)-3-{4-[1-isopropyl-4-(8-oxa-3-azabicyclo[3.2.1]oct-3-yl)-1H-pyrazolo[3,4-d]pyrimidin-6-yl]phenyl}urea]	7.40
